Data: US5075338A (priority 1986, dated 1991)

What was measured:
[1] = effect exerted on motility, on rats (spontaneous passings in shuttle-box); assay type: in vivo, rat
Description: II/4. Determination of effect exerted on motility, on rats
The test is carried out in a Shuttle-box without introducing current and light. The number of spontaneous passings over from side of the box to the other is registered and summarized by the apparatus for an observation period of 30 minutes. The test is carried out on groups comprising […] CFY rats of both sexes weighing […]. The test compound of the Formula I is added prior to the test subcutaneously, together with tetrabenazine and desmethyl-imiprmine (DMI) reference compounds, respectively.

[2] = system: noradrenaline uptake, nucleus free supernatant of rat cortex; assay: 3H-noradrenaline uptake in the nucleus free supernatant of rat cortex; assay type: biochemical; details: 37° C., 5 minutes
Description: II/7. Determination of ^3 H-noradrenaine uptake in the nucleus free supernatant of rat cortex (in vivo)
The cortex is homogenized in 0.32M saccharose with a teflon potter, the cell nucleus is sedimented by centrifuging at 0° C. with 1000 g for 20 minutes; the supernatant thus obtained is used for the test. The intake is accomplished in a KrebsHeinseleit solution saturated with carbogen, in a final volume of 1 ml, at a ^3 H-noradrenaline concentration of […]. Pre-incubation and incubation are carried out at 37° C. for 5 minutes each. The reaction is stopped by adding 4 ml of ice-cold Krebs solution and the tissue is separated by GF/B filtration. Non-specific uptake is determined by using 10^-4 M nisoxetine at 37° C. The radioactivity of the GF/B filter-paper is determined by liquid scintillation measurement in a toluene-PPO-POPOPtritone mixture.

[3] = system: rabbit pulmonary artery, tyramine-induced noradrenaline release; details: for IC50: read-out: IC50, inhibition of noradrenaline releasing effect of tyramine
in vivo = details: rat
[4] = psychostimulant effect in rats: shuttle-box test; assay type: in vivo, rat
[5] = effect exerted on food intake, in rats; assay type: in vivo, rat
[6] = system: tetrabenazine-induced depression; assay: antagonism of tetrabenazine-induced depression in learning test: jumping test; assay type: in vivo, rat
Source text: (§1) II/3 Determination of antagonism of tetrabenazine-induced depression, in learning test, on rats
a) Jumping test. Method: J. Knoll, B. Knoll: Arzneimittel Forschung 8, 339 (1958), 9, 633 (1959).

isolated rat striatum [7] = assay: dopaminergic activity increasing effect on isolated rat striatum preparations, in vitro
Source text: (§2) Determination of the dopamineric activity increasing effect, on isolated rat striatum preparations
(§3) Method: Kerecsen et al: Chromatography, the State of the Art, (Eds. Kalasz, Ettre) Akademiai Kiaoo Budepest (1985) page 195-203.

isolated rat striatum [8] = assay: dopaminergic activity increasing effect on isolated rat striatum preparations, ex vivo
Description: as §2, §3
In ex vivo tests the animals are treated s.c. for 3 weeks and the organ is removed 2 hours after administering the last injection.

[9] = system: tetrabenazine-induced depression; assay: antagonism of tetrabenazine-induced depression in learning test: shuttle-box test; assay type: in vivo, rat; details: N = 12
Source text: as §1
Method: B. Knoll, J. Knoll: Pol. J. Pharmacol. Pharm. 34, 17-23 (1982).
According to this test depression caused by tetrabenazine can be antagonized by the compounds of the Formula I. In Table 3 the numerical values of the series of test carried out by using the compound according to Example 7 are disclosed.

[10] = 10 mg/kg s.c., 30 minutes observation
[11] = 1st day, tetrabenazine 0.5 mg/kg + 10 mg/kg compound, s.c. daily
[12] = 2nd day, tetrabenazine 0.5 mg/kg + 10 mg/kg compound, s.c. daily
[13] = 3rd day, tetrabenazine 0.5 mg/kg + 10 mg/kg compound, s.c. daily
[14] = 4th day, tetrabenazine 0.5 mg/kg + 10 mg/kg compound, s.c. daily
[15] = 5th day, tetrabenazine 0.5 mg/kg + 10 mg/kg compound, s.c. daily
[16] = 1st day, tetrabenazine 0.5 mg/kg s.c. daily
[17] = 2nd day, tetrabenazine 0.5 mg/kg s.c. daily
[18] = 3rd day, tetrabenazine 0.5 mg/kg s.c. daily
[19] = 4th day, tetrabenazine 0.5 mg/kg s.c. daily
[20] = 5th day, tetrabenazine 0.5 mg/kg s.c. daily

CNCCCN1c2ccccc2CCc2ccccc21 [DMI, desmethyl-imiprmine, reference compound]
effect on motility and on tetrabenazine induced depression of motility ([1]; DMI reference): inhibitory by itself rather than antagonistic against tetrabenazine induced depression of motility
IC50 [2]: 1 to 5 nM

CCCC(Cc1ccccc1)NC(C)C.Cl (centres unmarked) [Example 1, N-iso-propyl-1-phenyl-2-pentylamine-hydrochloride]
IC50 [3]: 7470 nM
LD50 (in vivo; sc): 135 mg/kg

C#CCN(C)[C@H](C)Cc1ccccc1 [Example 1-deprenyl, reference compound]
IC50 [2]: 7000 nM

CCCC(Cc1ccccc1)NCCCO (centres unmarked) [Example 2, N-(3-hydroxypropyl)-1-phenyl-2-pentylamine]
IC50 [3]: 368 nM
LD50 (in vivo; iv): 50 mg/kg
LD50 (in vivo; sc): > 200 mg/kg
mortality (in vivo; sc): 0%

CCCNC(Cc1ccccc1)c1ccccc1.Cl (centres unmarked) [Example 3, N-propyl-1,2-diphenyl-ethylamine-hydrochloride]
motility [1, 10]: do not increase motility
IC50 [3]: 7470 nM
LD50 (in vivo; sc): 75 mg/kg
mortality (in vivo; sc): 0%

CCCNC(CCC)Cc1ccccc1 (centres unmarked) [Example 4, N-propyl-1-phenyl-2-pentylamine]
general motility ([4]; 0.5 mg/kg daily): without signs of increased general motility
performance over the control ([4]; 0.5 mg/kg daily): significant increase of performance over the control
increase of the intersignal reactions ([4]; 15 mg/kg daily): moderate
learning and retention ([4]; 15 mg/kg daily, complete test-period): increased learning and retentions from the very first day
maintenance of acquired performance after termination of treatment ([4]; 15 mg/kg, one-week learning period, 6 weeks after termination): completely maintain the performance acquired
antagonism of motility inhibiting effect of 1 mg/kg of tetrabenazine ([1]; 1 mg/kg s.c.): completely antagonized
motility [1, 10]: do increase motility
food intake ([5]; 5 mg/kg, first hour): decreasing effect being approximately identical with that of about 0.5 mg/kg of amphetamine
IC50 [2]: 50 nM
IC50 [3]: 1220 nM
LD50 (in vivo; iv): 27 mg/kg
LD50 (in vivo; po): 270 mg/kg
LD50 (in vivo; sc): 50 mg/kg

CCCNC(Cc1ccccc1)Cc1ccccc1.Cl [Example 5, N-propyl-1,3-diphenyl-2-propylamine-hydrochloride]
motility [1, 10]: do increase motility
LD50 (in vivo; sc): > 150 mg/kg
mortality (in vivo; sc): 0%

CCCNC(CC)Cc1ccccc1 (centres unmarked) [Example 6, N-propyl-1-phenyl-2-butyl-amine]
antagonism of the depressive effect of tetrabenazine ([6]; 15 mg/kg): entirely antagonized
inhibition of the solid conditioned reflex ([6]; 15 mg/kg (high doses)): can not be inhibited
antagonism of motility inhibiting effect of 1 mg/kg of tetrabenazine ([1]; 2.5 mg/kg s.c.): significantly antagonized
motility [1, 10]: do not increase motility
food intake ([5]; rats fasted for 96 hours, similar dose (15 mg/kg)): does not influence the food intake
food intake ([5]; well-fed satiated rats, 15 mg/kg p.o. or s.c.): does not change food intake
IC50 [2]: 500 nM
DOPAC concentration of the bath of the organ (isolated rat striatum [7]; dose 0.3): 172 pmol/g/min
dopamine (DA) concentration of the bath of the organ (isolated rat striatum [7]; dose 0.3): 214 pmol/g/min
DOPAC concentration of the bath of the organ (isolated rat striatum [7]; dose 1.0): 190 pmol/g/min
dopamine (DA) concentration of the bath of the organ (isolated rat striatum [7]; dose 1.0): 366 pmol/g/min
DOPAC concentration of the bath of the organ (isolated rat striatum [7]; dose 3.0): 331 pmol/g/min
dopamine (DA) concentration of the bath of the organ (isolated rat striatum [7]; dose 3.0): 290 pmol/g/min
DOPAC concentration of the bath of the organ (isolated rat striatum [7]; dose 10.0): 537 pmol/g/min
dopamine (DA) concentration of the bath of the organ (isolated rat striatum [7]; dose 10.0): 477 pmol/g/min
DOPAC concentration of the bath of the organ (isolated rat striatum [8]; daily dose 0.25, s.c. 3 weeks): 222 pmol/g/min
dopamine (DA) concentration of the bath of the organ (isolated rat striatum [8]; daily dose 0.25, s.c. 3 weeks): 257 pmol/g/min
DOPAC concentration of the bath of the organ (isolated rat striatum [8]; daily dose 5.0, s.c. 3 weeks): 223 pmol/g/min
dopamine (DA) concentration of the bath of the organ (isolated rat striatum [8]; daily dose 5.0, s.c. 3 weeks): 189 pmol/g/min
IC50 [3]: 346 nM
LD50 (in vivo; iv): 40 mg/kg
LD50 (in vivo; po): 300 mg/kg
LD50 (in vivo; sc): 140 mg/kg

COCCNC(C)Cc1ccccc1 (centres unmarked) [Example 7, N-(2-methoxyethyl)-1-phenyl-2-propyl-amine]
F+ = % of animals showing a conditioned reaction [9, 11]: 34.60%
IR = number of intersignal reactions [9, 11]: 10.50
f+ = % of animals responding to unconditioned stimulus [9, 11]: 49.80%
f- = % of animals which do not respond even to unconditioned stimulus [9, 11]: 16.40%
F+ = % of animals showing a conditioned reaction [9, 12]: 62.20%
IR = number of intersignal reactions [9, 12]: 14.70
f+ = % of animals responding to unconditioned stimulus [9, 12]: 21.00%
f- = % of animals which do not respond even to unconditioned stimulus [9, 12]: 16.80%
F+ = % of animals showing a conditioned reaction [9, 13]: 69.20%
IR = number of intersignal reactions [9, 13]: 21.30
f+ = % of animals responding to unconditioned stimulus [9, 13]: 9.80%
f- = % of animals which do not respond even to unconditioned stimulus [9, 13]: 21.00%
F+ = % of animals showing a conditioned reaction [9, 14]: 64.90%
IR = number of intersignal reactions [9, 14]: 14.30
f+ = % of animals responding to unconditioned stimulus [9, 14]: 17.70%
f- = % of animals which do not respond even to unconditioned stimulus [9, 14]: 17.40%
F+ = % of animals showing a conditioned reaction [9, 15]: 76.10%
IR = number of intersignal reactions [9, 15]: 16.80
f+ = % of animals responding to unconditioned stimulus [9, 15]: 8.50%
f- = % of animals which do not respond even to unconditioned stimulus [9, 15]: 15.40%
IC50 [3]: 14100 nM
LD50 (in vivo; sc): > 200 mg/kg
mortality (in vivo; sc): 0%

CCNC(CC)Cc1ccccc1 (centres unmarked) [Example 8]
IC50 [3]: 1890 nM
LD50 (in vivo; iv): 46 mg/kg
LD50 (in vivo; sc): 195 mg/kg

CCC(Cc1ccccc1)NC1CCCCC1 (centres unmarked) [Example 9]
IC50 [3]: 799 nM
LD50 (in vivo; sc): 160 mg/kg

CCCC(Cc1ccccc1)NC (centres unmarked) [Example 10]
IC50 [3]: 1800 nM
LD50 (in vivo; iv): 18 mg/kg
LD50 (in vivo; sc): 175 mg/kg

CCCCC(Cc1ccccc1)NCCC (centres unmarked) [Example 11]
motility [1, 10]: do increase motility
food intake ([5]; 5 mg/kg, first hour): decreasing effect being approximately identical with that of about 0.5 mg/kg of amphetamine
IC50 [2]: 100 nM
IC50, inhibition of noradrenaline releasing effect of tyramine [3]: can not be given
LD50 (in vivo; sc): 110 mg/kg

CCCCC(Cc1ccccc1)NC(C)Cc1ccccc1 (centres unmarked) [Example 12]
IC50 [3]: 3460 nM
LD50 (in vivo; iv): 16 mg/kg
LD50 (in vivo; sc): > 25 mg/kg

CCCCCCC(Cc1ccccc1)NCCC (centres unmarked) [Example 13]
IC50 [3]: 501 nM
LD50 (in vivo; sc): > 50 mg/kg
mortality (in vivo; sc): 0%

COc1cc2c(cc1OC)C1CC(=O)C(CC(C)C)CN1CC2 (centres unmarked) [tetrabenazine, reference compound]
inhibition of the solid conditioned reflex ([6]; 5 mg/kg tetrabenazine): completely inhibited
F+ = % of animals showing a conditioned reaction [9, 16]: 9.58%
IR = number of intersignal reactions [9, 16]: 10.25
f+ = % of animals responding to unconditioned stimulus [9, 16]: 31.25%
f- = % of animals which do not respond even to unconditioned stimulus [9, 16]: 59.17%
F+ = % of animals showing a conditioned reaction [9, 17]: 8.50%
IR = number of intersignal reactions [9, 17]: 8.33
f+ = % of animals responding to unconditioned stimulus [9, 17]: 30.75%
f- = % of animals which do not respond even to unconditioned stimulus [9, 17]: 60.75%
F+ = % of animals showing a conditioned reaction [9, 18]: 11.42%
IR = number of intersignal reactions [9, 18]: 4.67
f+ = % of animals responding to unconditioned stimulus [9, 18]: 15.83%
f- = % of animals which do not respond even to unconditioned stimulus [9, 18]: 72.75%
F+ = % of animals showing a conditioned reaction [9, 19]: 9.8%
IR = number of intersignal reactions [9, 19]: 4.50
f+ = % of animals responding to unconditioned stimulus [9, 19]: 17.83%
f- = % of animals which do not respond even to unconditioned stimulus [9, 19]: 73.08%
F+ = % of animals showing a conditioned reaction [9, 20]: 17.67%
IR = number of intersignal reactions [9, 20]: 6.92
f+ = % of animals responding to unconditioned stimulus [9, 20]: 12.58%
f- = % of animals which do not respond even to unconditioned stimulus [9, 20]: 69.75%
motility ([1]; 1 mg/kg tetrabenazine): motility inhibiting effect
